In US5663207A, “Gem-dichlorocyclopropanes as antitumor agents” (priority 1995, dated 1997):
Where two headings read alike, the source gives them in different places.

What was measured:
[1] = test system: MCF-7 human breast cancer cells; assay: In vitro MCF-7 human breast cancer cell growth inhibition assay; type: cell-based; conditions: for inhibition at 1 µM: Homo sapiens
Excerpt: (§1) The biological evaluation of the test compounds consisted of the in vitro rat cytosolic estradiol receptor binding assay, the in vivo immature mouse uterotrophic (estrogenic) and antiuterotrophic (antiestrogenic) assays, and the in vitro suppression of the proliferation of the ER positive MCF-7 human breast cancer cell line. Estradiol (pure agonist), TAM (agonist in mice and antagonist in MCF-7), MER 25 (pure antagonist) and Analog II (antagonist in mice) were used in the assay as standards.
MCF-7 (estrogen-receptor positive) human breast cancer cells (obtained from the Michigan Cancer Foundation, Detroit, Mich.) were grown at 37° C. in 75 cm^2 tissue culture (T-75) flasks, as monolayer cultures in RPMI 1640 phenol red-free media supplemented with 2 mM L-glutamine, gentamicin (50 μg/mL), penicillin (100 units/mL), streptomycin (100 μg/mL ) and calf serum (5%). Cultures were grown in an incubator 37° C. in a humid 5% CO2 atmosphere, and fed on alternate days. Expotential growth was maintained by subculturing at eight day intervals when the cells per T-75 flask reached 10 to 12×10^6 cells. Cells were trypsinized, washed and plated in multiwell plates at a density of 5×10^4 cells/well in 3 mL of RPMI 1640 media. The cells were allowed to attach and were in logarithmic growth when the test compounds were added. The test compounds (10^-6 M) in the presence or absence of a 10-fold lower dose of estradiol were dissolved in a polyethylene glycol 400: ethanol (55:45) mixture and added in the culture media in duplicate. Control samples received vehicle alone at the same concentration used in the treatment groups. The final concentration of the vehicle mixture was 0.1% of the incubation media. Cell growth was measured on alternate days using the hemocytometric trypan blue exclusion method. Percent inhibition of MCF-7 cells was calculated as the ratio of the control mean cell count per well minus the treatment group mean cell count per well to the control mean cell count per well, multiplied by 100.
^b % MCF7 inhibition was calculated as follows: […]
Thirteen compounds, Analog II, TAM, and MER 25 were tested for their antiproliferative activity in the MCF-7 human breast cancer cell line (Table II). Compounds were tested at a concentration of 10^-6 M in the presence or absence of 10^-7 M estradiol to assess their ability to alter the growth of the calls (Table II). The 10^-6 M concentration was selected since it was reported that the inhibition of the MCF-7 cells by antiestrogens and TAM occurred either at that concentration or less, and were both selective and estrogen receptor specific. Concentrations of antiestrogens greater than 5×10^-6 M were reported to have nonspecific cytotoxic effects (BRIAND, P. AND […], A. E. (1984), "Effect of estrogen and antiestrogen on the human breast cancer cell line MCF-7 adapted to growth at low serum concentration", Cancer Research, 44, 1114).

[2] = test system: Immature Swiss-Webster female mice (uterine weight); assay: Uterotrophic assay for estrogenic activity in immature mice; type: in vivo, mouse (Swiss-Webster); conditions: for uterine weight response (estrogenic activity, in words): doses of 5, 25 and 100 μg (total dose); for uterotrophic response on retest (in words): retested at 100, 250, and 500 μg
Excerpt: The biological evaluation of the test compounds consisted of the in vitro rat cytosolic estradiol receptor binding assay, the in vivo immature mouse uterotrophic (estrogenic) and antiuterotrophic (antiestrogenic) assays, and the in vitro suppression of the proliferation of the ER positive MCF-7 human breast cancer cell line.
(§2) Vital-free immature female Swiss-Webster mice were obtained at 17-19 days of age from Sasco weighing 8-10 g, and were used in the uterotrophic and antiuterotrophic assays. Immature female Sprague-Dawley rats, obtained at 17-19 days of age from Sasco, weighing 28-33 g, were used as sources of uteri for the estradiol receptor binding assay. Animals were housed in wire topped polycarbonate cages at six animals per cage, with the environment controlled at 25° C. and a 12 h light/dark cycle. The animals received a diet of Wayne Lab Blox rodent chow and tap water ad libitum.
Immature Swiss-Webster female mice (8-15 g) at 17-19 days of age were used. Estradiol was used in the dosage range of […] (total dose) as the assay standard. Each cyclopropyl analogue was examined at doses of 5, 25, and 100 μg (total dose). […] Estrogenic activity was measured as an increase in uterine weight produced by each test compound.

estrogen receptor = biological target: T1, estrogen receptor (Rattus norvegicus, UniProt P06211); assay: Receptor binding assay: displacement of [3H]-estradiol from rat uterine cytosol; set-up: species or system rat (Sprague-Dawley); conditions: for [3H]-estradiol displacement curve (in words): rat uterine cytosolic estrogen receptor; for RBA (relative binding affinity): relative to estradiol = 100%
T1 construct: ovariectomized rat uterine cytosolic estrogen receptor preparation; from tissue; host or cells: uterine cytosol of ovariectomized Sprague-Dawley rats (immature rats from Sasco are named as uterus source, mature ovariectomized rats)
T1 sequence (P06211 1-600): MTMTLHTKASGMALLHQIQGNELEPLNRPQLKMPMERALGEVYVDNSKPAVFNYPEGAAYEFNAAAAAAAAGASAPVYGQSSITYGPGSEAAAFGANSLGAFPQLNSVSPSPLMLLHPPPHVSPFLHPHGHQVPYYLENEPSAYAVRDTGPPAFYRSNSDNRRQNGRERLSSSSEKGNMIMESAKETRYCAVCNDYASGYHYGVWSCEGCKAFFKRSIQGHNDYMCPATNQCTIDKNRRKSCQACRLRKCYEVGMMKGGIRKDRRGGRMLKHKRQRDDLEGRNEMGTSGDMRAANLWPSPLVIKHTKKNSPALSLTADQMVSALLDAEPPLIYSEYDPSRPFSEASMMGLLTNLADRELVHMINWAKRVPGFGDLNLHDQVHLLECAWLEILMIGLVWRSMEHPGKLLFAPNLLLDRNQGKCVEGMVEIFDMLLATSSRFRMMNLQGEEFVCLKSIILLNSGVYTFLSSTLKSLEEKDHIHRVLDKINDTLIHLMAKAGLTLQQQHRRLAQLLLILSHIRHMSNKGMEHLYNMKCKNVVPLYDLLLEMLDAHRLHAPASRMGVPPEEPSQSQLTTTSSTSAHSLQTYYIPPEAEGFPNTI
Excerpt: as §1, §2
The RBAs of the test compounds were determined by the displacement of [^3 H]-estradiol in vitro, as described previously (DAY, B. W., […], R. A., JAIN, P., PENTO, J. T., MOUSISSIAN, G. K. AND MEYER, K. L. (1991), "Synthesis and biological evaluation of a series of 1,1-dichloro-2,2,3-triarylcyclopropanes as pure antiestrogens", Journal of Medicinal Chemistry, 34, 842; KORENMAN, S. G. (1969), "Comparative binding affinity of estrogens and its relation to estrogenic potency", Steroid, 13, 163). Mature female Sprague-Dawley rats were ovariectomized at least two weeks prior to the receptor binding experiment. Each test compound was assayed at three concentrations in duplicate over a range of 10^-3 -10^-5 M and 10^-6 -10^-8 M for the estradiol standard. The non-specific binding was determined by a parallel incubation of each compound with the addition of diethylstilbestrol to give a final concentration of 2×10^-5 M DES which was sufficient to saturate all the estrogen receptors present in the cytosolic fraction. Specific displacement for each compound was determined by subtraction of nonspecific displacement from total displacement. The [^3 H]-estradioldisplacement curve for each test compound was determined by linear repression analysis and plotted graphically. The relative binding affinity for each compound was calculated (BLISS, C.I. (1967), "The statistics in biology", McGraw Hill, Inc: New York).
^a Determined by competitive radiometric binding assay with rat
uterine cytosol as a source of receptor, [^3 H]estradiol as tracer,
and dextrancoated charcoal as absorbant for free ligand.
^c Binding affinities are expressed relative to that of estradiol =
100% (RBA = relative binding affinity) and are the average of duplicate
determinations minus nonspecific binding.
The relative binding affinities (RBAs), as determined by the competitive radiometric binding assay and measured by [^3 H]-estradiol displacement from the ovariectomized rat uterine cytosolic estrogen receptor preparation, after subtracting non-specific receptor binding, were calculated for all of the synthesized target compounds, TAM, MER 25, Analog II, and estradiol. The displacement curves were plotted as percent receptor-bound [^3 H]-estrodiol versus concentration of test compounds (not shown) and the receptor binding affinity of each compound is presented in Table II.

[3] = MCF7, 10^-6 M, versus control mean cell count, read-out: MCF-7 Inhibition
[4] = MCF7, 10^-6 M, printed as dash with footnote g, read-out: MCF-7 Inhibition
[5] = average of duplicate determinations minus nonspecific binding
[6] = MCF7, read-out: MCF-7 Inhibition

Structure (SMILES): COc1ccc([C@H]2[C@@H](c3ccccc3)C2(Cl)Cl)cc1 (relative stereo) [Compound 8, 1,1-Dichloro-cis-2-(p-methoxyphenyl)-3-phenylcyclopropane]
- effect on MCF-7 cell growth (in words) ([1]; 10^-6 M): inhibited cell growth
- inhibition at 1 µM [1, 3]: 25.3%
- uterine weight response (estrogenic activity, in words) [2]: well below the control group
- RBA ranking (in words) (estrogen receptor; among the compounds tested): lowest RBA
- [3H]-estradiol displacement curve (in words) (estrogen receptor): dose-dependent displacement curves with shallower slopes than their acetoxy and phenolic analogues
- RBA (relative binding affinity) (estrogen receptor; given as dash with footnote e): --^e (Less than 0.01%.)

Structure (SMILES): COc1ccc([C@H]2[C@H](c3ccccc3)C2(Cl)Cl)cc1 (relative stereo) [Compound 16, 1,1-Dichloro-trans-2-(p-methoxyphenyl)-3-phenylcyclopropane]
- effect on MCF-7 cell growth (in words) ([1]; 10^-6 M): did not
- inhibition at 1 µM [1, 4]: < 10%
- uterine weight response (estrogenic activity, in words) [2]: slight increase in uterine weight at doses of 25 and 100 μg
- uterotrophic response on retest (in words) [2]: no significant uterotrophic responses
- [3H]-estradiol displacement curve (in words) (estrogen receptor): dose-dependent displacement curves with shallower slopes than their acetoxy and phenolic analogues
- RBA (relative binding affinity) (estrogen receptor; given as dash with footnote e): --^e (Less than 0.01%.)

Structure (SMILES): CC(=O)Oc1ccc([C@H]2[C@H](c3ccccc3)C2(Cl)Cl)cc1 (relative stereo) [Compound 18, 1,1-Dichloro-trans-2-(p-acetoxyphenyl)-3-phenylcyclopropane]
- effect on MCF-7 cell growth (in words) ([1]; 10^-6 M): did not
- inhibition at 1 µM [1, 4]: < 10%
- RBA (relative binding affinity) (estrogen receptor; [5]): 0.25%

Structure (SMILES): COc1ccc([C@@H]2[C@H](c3ccc(OC)cc3)C2(Cl)Cl)cc1 [Compound 14, 1,1-Dichloro-cis-2,3-bis-(p-methoxyphenyl) cyclopropane]
- effect on MCF-7 cell growth (in words) ([1]; 10^-6 M): inhibited cell growth
- inhibition at 1 µM [1, 3]: 37%
- [3H]-estradiol displacement curve (in words) (estrogen receptor): dose-dependent displacement curves with shallower slopes than their acetoxy and phenolic analogues
- RBA (relative binding affinity) (estrogen receptor; [5]): 0.01%

Structure (SMILES): COc1ccc(C2(c3ccc(OC)cc3)CC2(Cl)Cl)cc1 [Compound 23, 1,1-Dichloro-2,2-bis-(p-methoxyphenyl)cyclopropane]
- effect on MCF-7 cell growth (in words) ([1]; 10^-6 M): inhibited cell growth
- inhibition at 1 µM [1, 6]: 30%
- uterine weight response (estrogenic activity, in words) [2]: well below the control group
- [3H]-estradiol displacement curve (in words) (estrogen receptor): dose-dependent displacement curves with shallower slopes than their acetoxy and phenolic analogues
- RBA (relative binding affinity) (estrogen receptor; given as dash with footnote e): --^e (Less than 0.01%.)

Structure (SMILES): COc1ccc(C2(c3ccc(O)cc3)CC2(Cl)Cl)cc1 (stereo not shown) [Compound 24, 1,1-Dichloro-2-(p-methoxyphenyl)-2-(p-hydroxyphenyl)cyclopropane]
- effect on MCF-7 cell growth (in words) ([1]; 10^-6 M): only 23 inhibited cell growth
- inhibition at 1 µM [1, 6]: < 10%
- RBA (relative binding affinity) (estrogen receptor; [5]): 0.02%

Structure (SMILES): Oc1ccc(C2(c3ccc(O)cc3)CC2(Cl)Cl)cc1 [Compound 25, 1,1-Dichloro-2,2-bis-(p-hydroxyphenyl) cyclopropane]
- effect on MCF-7 cell growth (in words) ([1]; 10^-6 M): only 23 inhibited cell growth
- inhibition at 1 µM [1, 6]: < 10%
- uterine weight response (estrogenic activity, in words) [2]: well below the control group
- RBA (relative binding affinity) (estrogen receptor; [5]): 0.04%

Structure (SMILES): COc1ccc(C2(c3ccc(OC)cc3)C(Cl)(Cl)C23CCCCC3)cc1 [Compound 29, 1,1-Dichloro-2,2-bis-(p-methoxyphenyl)-spiro[2.5]octane]
- effect on MCF-7 cell growth (in words) ([1]; 10^-6 M): active inhibitors of cell growth
- inhibition at 1 µM [1, 6]: 37%
- uterine weight response (estrogenic activity, in words) [2]: slight increase in uterine weight at doses of 25 and 100 μg
- uterotrophic response on retest (in words) [2]: no significant uterotrophic responses
- [3H]-estradiol displacement curve (in words) (estrogen receptor): dose-dependent displacement curves with shallower slopes than their acetoxy and phenolic analogues
- RBA (relative binding affinity) (estrogen receptor; given as dash with footnote e): --^e (Less than 0.01%.)

Structure (SMILES): CC(=O)Oc1ccc(C2(c3ccc(OC(C)=O)cc3)C(Cl)(Cl)C23CCCCC3)cc1 [Compound 31, 1,1-Dichloro-2,2-bis-(p-acetoxyphenyl)-spiro[2.5]octane]
- inhibition at 1 µM [1, 6]: < 10%
- uterine weight response (estrogenic activity, in words) [2]: well below the control group
- RBA (relative binding affinity) (estrogen receptor; [5]): 0.05%
